Test results taken from patent US12617779B2, “Self degradation-type CDK9 inhibitor prodrug and liposome encapsulating same” (Sumitomo Pharma Co., Ltd., priority 2021, dated 2026).

How the values were obtained:
[1] = Evaluation of conversion rate to active form in human plasma (Experimental Example 3); format: in vitro ADME; settings: human, 0.2 μmol/L
Method in brief: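 LC-MS/MS (positive ESI) followed the parent and released Alvocidib during 37° C incubation of 0.2 μmol/L compound in human or BALB/c mouse plasma, sampled at 0/30/60 or 0/60/120 min. Remaining parent is expressed versus the 0-min peak; conversion versus a 0.2 μmol/L Alvocidib standard.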

[2] = Evaluation of conversion rate to active form in buffer solution (Experimental Example 1); format: physicochemical
Method in brief: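 Stability across pH: 25 umol/L, 37° C, 50 mM citrate/phosphate, pH 5.0–7.4. Sampling at 0, 0.5, 1, 2, 3 h; HPLC determined loss of compound and Alvocidib generated.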

Compound: CN1CC[C@H](c2c(O)cc(O)c3c(=O)cc(-c4ccccc4Cl)oc23)[C@H](OC(=O)[C@@H](N)CO)C1 [Comparative Example 9, reference compound]
- Production rate (%) of Alvocidib ([1]; 0 min): 3%
- Residual rate (%) of test compound ([1]; 0 min): 100%
- Production rate (%) of Alvocidib ([1]; 60 min): 18%
- Residual rate (%) of test compound ([1]; 60 min): 85%
- Production rate (%) of Alvocidib ([1]; 120 min): 25%
- Residual rate (%) of test compound ([1]; 120 min): 80%
- Production rate of Alvocidib ([2]; pH5.0, 0 hr): 5.0%
- Residual rate ([2]; pH5.0, 0 hr): 85.7%
- Stability in buffer solution at pH 5 ([2]; pH 5, 37° C., up to 2 or 3 hours): unstable
- Production rate of Alvocidib ([2]; pH5.0, 0.5 hr): 7.1%
- Residual rate ([2]; pH5.0, 0.5 hr): 84.0%
- Production rate of Alvocidib ([2]; pH5.0, 1 hr): 8.7%
- Residual rate ([2]; pH5.0, 1 hr): 82.6%
- Production rate of Alvocidib ([2]; pH5.0, 2 hr): 12.8%
- Residual rate ([2]; pH5.0, 2 hr): 79.4%
- Production rate of Alvocidib ([2]; pH5.0, 3 hr): 15.6%
- Residual rate ([2]; pH5.0, 3 hr): 77.0%
- Production rate of Alvocidib ([2]; pH5.5, 0 hr): 4.9%
- Residual rate ([2]; pH5.5, 0 hr): 86.0%
- Production rate of Alvocidib ([2]; pH5.5, 0.5 hr): 8.5%
- Residual rate ([2]; pH5.5, 0.5 hr): 83.3%
- Production rate of Alvocidib ([2]; pH5.5, 1 hr): 11.3%
- Residual rate ([2]; pH5.5, 1 hr): 81.1%
- Production rate of Alvocidib ([2]; pH5.5, 2 hr): 17.7%
- Residual rate ([2]; pH5.5, 2 hr): 78.4%
- Production rate of Alvocidib ([2]; pH5.5, 3 hr): 22.4%
- Residual rate ([2]; pH5.5, 3 hr): 74.2%
- Production rate of Alvocidib ([2]; pH6.0, 0 hr): 5.0%
- Residual rate ([2]; pH6.0, 0 hr): 86.0%
- Production rate of Alvocidib ([2]; pH6.0, 0.5 hr): 17.1%
- Residual rate ([2]; pH6.0, 0.5 hr): 76.5%
- Production rate of Alvocidib ([2]; pH6.0, 1 hr): 26.0%
- Residual rate ([2]; pH6.0, 1 hr): 69.2%
- Production rate of Alvocidib ([2]; pH6.0, 2 hr): 43.4%
- Residual rate ([2]; pH6.0, 2 hr): 53.9%
- Production rate of Alvocidib ([2]; pH6.0, 3 hr): 54.0%
- Residual rate ([2]; pH6.0, 3 hr): 44.3%
- Production rate of Alvocidib ([2]; pH6.5, 0 hr): 5.1%
- Residual rate ([2]; pH6.5, 0 hr): 86.0%
- Production rate of Alvocidib ([2]; pH6.5, 0.5 hr): 20.9%
- Residual rate ([2]; pH6.5, 0.5 hr): 74.7%
- Production rate of Alvocidib ([2]; pH6.5, 1 hr): 31.1%
- Residual rate ([2]; pH6.5, 1 hr): 66.2%
- Production rate of Alvocidib ([2]; pH6.5, 2 hr): 49.6%
- Residual rate ([2]; pH6.5, 2 hr): 49.4%
- Production rate of Alvocidib ([2]; pH6.5, 3 hr): 60.2%
- Residual rate ([2]; pH6.5, 3 hr): 39.1%
- Production rate of Alvocidib ([2]; pH7.0, 0 hr): 5.3%
- Residual rate ([2]; pH7.0, 0 hr): 85.9%
- Production rate of Alvocidib ([2]; pH7.0, 0.5 hr): 21.7%
- Residual rate ([2]; pH7.0, 0.5 hr): 75.8%
- Production rate of Alvocidib ([2]; pH7.0, 1 hr): 30.7%
- Residual rate ([2]; pH7.0, 1 hr): 68.1%
- Production rate of Alvocidib ([2]; pH7.0, 2 hr): 47.2%
- Residual rate ([2]; pH7.0, 2 hr): 52.8%
- Production rate of Alvocidib ([2]; pH7.0, 3 hr): 57.1%
- Residual rate ([2]; pH7.0, 3 hr): 42.9%
- Production rate of Alvocidib ([2]; pH7.4, 0 hr): 5.6%
- Residual rate ([2]; pH7.4, 0 hr): 85.3%
- Production rate of Alvocidib ([2]; pH7.4, 0.5 hr): 22.1%
- Residual rate ([2]; pH7.4, 0.5 hr): 76.2%
- Production rate of Alvocidib ([2]; pH7.4, 1 hr): 29.7%
- Residual rate ([2]; pH7.4, 1 hr): 70.3%
- Production rate of Alvocidib ([2]; pH7.4, 2 hr): 44.0%
- Residual rate ([2]; pH7.4, 2 hr): 56.0%
- Production rate of Alvocidib ([2]; pH7.4, 3 hr): 53.3%
- Residual rate ([2]; pH7.4, 3 hr): 46.7%
